Results from patent publication US20210047291A1, “PESTICIDALLY ACTIVE HETEROCYCLIC DERIVATIVES WITH SULFUR CONTAINING SUBSTITUENTS” (SYNGENTA PARTICIPATIONS AG, priority 2018, published 2021).
Each block holds one molecule with its values, some of them ahead of it.

Legend:
Melodoigyne incognita = experiment: Example B14: Melodoigyne incognita juvenile mobility, in vitro profiling in 96 well plate; format: in vivo; details: 200 ppm; after 24 h; second stage juveniles; read-out: control (juvenile mobility)
Outline: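 Second-stage juveniles (100–150 per well, freshly harvested) were exposed in triplicate to test solutions prepared at 1000, 200, 100, 50, 25 and 12.5 ppm before nematode suspension was added. Plates were kept 24 h at room temperature in the dark. Juvenile mobility was measured by imaging and compared with 12 untreated replicates.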

[1] = tested on: Myzus persicae (Green peach aphid); experiment: Example B19: Myzus persicae, mixed population, contact/feeding, pepper plants; format: in vivo; details: Concentration 3 ppm, MYZUPE (contact)
Procedure: Pepper plants were infested with mixed aged aphid population and were treated 1 day after infestation with diluted test solutions in a spray chamber. 5 days after treatment samples were assessed for mortality.

[2] = tested on: Myzus persicae (Green peach aphid); experiment: Example B20: Myzus persicae, mixed population, systemic into soil (drench), pea seedlings; format: in vivo; details: Concentration 0.2 ppm, MYZUPE (drench)
Procedure: Pea seedlings cultivated in field soil and infested 1 day before treatment with mixed aged aphid population were treated as drench application and checked for mortality 7 days after treatment.

[3] = tested on: Frankliniella occidentalis (Western Flower Thrips); experiment: Example B23: Frankliniella occidentalis, mixed population, systemic into soil (drench), French bean plants; format: in vivo; details: Concentration 3 ppm, FRANOC (drench)
Procedure: French bean plants cultivated in field soil, were treated via drench application and 1 day after treatment they were infested with mixed aged thrips population. 8 days after infestation samples were assessed for mortality and phytotoxicity symptoms.

[4] = tested on: Frankliniella occidentalis (Western Flower Thrips); experiment: Example B22: Frankliniella occidentalis, mixed population, contact/feeding, French bean plants; format: in vivo; details: Concentration 50 ppm, FRANOC (contact)
Procedure: French bean plants were treated with diluted test solutions in a spray chamber. After drying plants were infested with a mixed aged thrips population. 7 days after infestation, samples were assessed for mortality.

[5] = tested on: Nilaparvata lugens (Brown Plant Hopper); experiment: Example B21: Nilaparvata lugens, larvicide, feeding/contact, rice plants; format: in vivo; details: Concentration 3 ppm, NILALU (contact)
Procedure: Rice plants were treated with the diluted test solutions in a spray chamber. After drying plants were infested with ˜20 N3 nymphs. 7 days after the treatment samples were assessed for mortality and growth regulation.

[6] = tested on: Plutella xylostella (Diamond Back Moth); experiment: Example B7: Plutella xylostella, artificial diet, L2 larvae; format: in vivo; details: 120 h, application rate of 200 ppm, L2 larvae, 5 days after infestation, read-out: effect in at least one of the two categories (mortality or growth inhibition)
Procedure: (§1) 24-well microtiter plates with artificial diet were treated with aqueous test solutions prepared from 10,000 ppm DMSO stock solutions by pipetting. After drying, the plates were infested with L2 larvae (10 to 15 per well). The samples were assessed for mortality and growth inhibition in comparison to untreated samples 5 days after infestation.

[7] = tested on: Euschistus heros (Neotropical Brown Stink Bug); experiment: Example B3: Euschistus heros, soybean leaves, N2 nymphs; format: in vivo; details: Euschistus heros, 120 h; application rate of 200 ppm; N2 nymphs; 5 days after infestation; read-out: effect in at least one of the two categories (mortality or growth inhibition)
Procedure: Soybean leaves on agar in 24-well microtiter plates were sprayed with aqueous test solutions prepared from 10,000 ppm DMSO stock solutions. After drying the leaves were infested with N2 nymphs. The samples were assessed for mortality and growth inhibition in comparison to untreated samples 5 days after infestation.

[8] = tested on: Spodoptera littoralis (Egyptian Cotton Leaf Worm); experiment: Example B9: Spodoptera littoralis, cotton leaf discs (mortality, anti-feeding, growth inhibition); format: in vivo; details: foliar, 72 h, application rate of 200 ppm, L1 larvae, 3 days after infestation, read-out: control (mortality, anti-feeding effect or growth inhibition)
Procedure: Cotton leaf discs were placed onto agar in 24-well microtiter plates and sprayed with aqueous test solutions prepared from 10,000 ppm DMSO stock solutions. After drying the leaf discs were infested with five L1 larvae. The samples were assessed for mortality, anti-feeding effect, and growth inhibition in comparison to untreated samples 3 days after infestation. Control of Spodoptera littoralis by a test sample is given when at least one of the categories mortality, anti-feedant effect, and growth inhibition is higher than the untreated sample.

[9] = tested on: Frankliniella occidentalis (Western Flower Thrips); experiment: Example B4: Frankliniella occidentalis feeding/contact activity, sunflower leaf discs; format: in vivo; details: foliar, 168 h, application rate of 200 ppm, mixed ages, 7 days after infestation
Procedure: (§2) Sunflower leaf discs were placed on agar in 24-well microtiter plates and sprayed with aqueous test solutions prepared from 10,000 DMSO stock solutions. After drying the leaf discs were infested with a Frankliniella population of mixed ages. The samples were assessed for mortality 7 days after infestation.

[10] = tested on: Tetranychus urticae (Two-Spotted Spider Mite); experiment: Example B10: Tetranychus urticae feeding/contact activity, bean leaf discs; format: in vivo; details: foliar, 192 h, application rate of 200 ppm, mixed population (mobile stages), 8 days after infestation
Procedure: Bean leaf discs on agar in 24-well microtiter plates were sprayed with aqueous test solutions prepared from 10,000 ppm DMSO stock solutions. After drying the leaf discs were infested with a mite population of mixed ages. The samples were assessed for mortality on mixed population (mobile stages) 8 days after infestation.

[11] = tested on: Bemisia tabaci (Cotton White Fly); experiment: Example B1: Bemisia tabaci feeding/contact activity, cotton leaf discs; format: in vivo; details: foliar, 144 h, application rate of 200 ppm, adult white flies, 6 days after incubation
Procedure: Cotton leaf discs were placed on agar in 24-well microtiter plates and sprayed with aqueous test solutions prepared from 10,000 ppm DMSO stock solutions. After drying the leaf discs were infested with adult white flies. The samples were checked for mortality 6 days after incubation.

[12] = tested on: Myzus persicae (Green peach aphid); experiment: Example B5: Myzus persicae feeding/contact activity, sunflower leaf discs; format: in vivo; details: Myzus persicae, foliar, 144 h; application rate of 200 ppm; mixed ages; 6 days after infestation; read-out: mortality
Procedure: Sunflower leaf discs were placed onto agar in a 24-well microtiter plate and sprayed with aqueous test solutions prepared from 10,000 ppm DMSO stock solutions. After drying, the leaf discs were infested with an aphid population of mixed ages. The samples were assessed for mortality 6 days after infestation.

[13] = tested on: Diabrotica Balteata (Corn Root Worm); experiment: Example B2: Diabrotica balteata, maize sprouts, L2 larvae; format: in vivo; details: Diabrotica balteata, 96 h, application rate of 200 ppm; L2 larvae; 4 days after infestation; read-out: effect in at least one of the two categories (mortality or growth inhibition)
Procedure: as §1, with “Maize sprouts placed onto an agar layer in 24-well” for “24-well”, “plates” for “plates with artificial diet”, “spraying.” for “pipetting.”, “(6” for “(10”, “10” for “15”, “4” for “5”

[14] = tested on: Myzus persicae (Green peach aphid); experiment: Example B6: Myzus persicae systemic activity, pea seedlings; format: in vivo; details: for mortality at 24 ppm: Myzus persicae, 144 h, test rate of 24 ppm, mixed ages, 6 days after placing seedlings into test solutions, read-out: mortality
Procedure: Roots of pea seedlings infested with an aphid population of mixed ages were placed directly into aqueous test solutions prepared from 10,000 DMSO stock solutions. The samples were assessed for mortality 6 days after placing seedlings into test solutions.

[15] = tested on: Plutella xylostella (Diamond Back Moth); experiment: Example B12: Plutella xylostella, artificial diet, eggs; format: in vivo; details: 192 h, application rate of 200 ppm, 8 days after infestation, read-out: effect in at least one of the two categories (mortality or growth inhibition)
Procedure: 24-well microtiter plates with artificial diet were treated with aqueous test solutions prepared from 10,000 ppm DMSO stock solutions by pipetting. After drying, Plutella eggs were pipetted through a plastic stencil onto a gel blotting paper and the plate was closed with it. The samples were assessed for mortality and growth inhibition in comparison to untreated samples 8 days after infestation. The following compounds gave an effect of at least 80% in at least one of the two categories (mortality or growth inhibition) at an application rate of 200 ppm: P46.

[16] = tested on: Thrips tabaci (Onion Thrips); experiment: Example B11: Thrips tabaci feeding/contact activity, sunflower leaf discs; format: in vivo; details: foliar, 144 h, application rate of 200 ppm, mixed ages, 6 days after infestation
Procedure: as §2, with “10,000 ppm” for “10,000”, “thrips” for “Frankliniella”, “6” for “7”

melting point: 211 to 213 °C
Structure (SMILES): CCS(=O)(=O)c1cc(N2CCSCC2=O)cnc1-c1nc2cc(C(F)(F)F)ncc2n1C [P19, 4-[5-ethyslulfonyl-6-[3-methyl-6-(trifluoromethyl)imidazo[4,5-c]pyridin-2-yl]-3-pyridyl]thiomorpholin-3-one]
pest or weed control at 200 ppm (Melodoigyne incognita): ≥ 80%

Structure (SMILES): CCS(=O)(=O)c1ccc(N(C)C(C)=O)nc1-c1nc2cc(C(F)(F)F)ncc2n1C [reference compound]
mortality at 3 ppm [1]: 20%
mortality at 0.2 ppm [2]: 50%
mortality at 3 ppm [3]: 35%
mortality at 50 ppm [4]: 0%
mortality at 3 ppm [5]: 30%

Structure (SMILES): CCS(=O)(=O)c1cc(N(C)C(C)=O)cnc1-c1nc2cc(C(F)(F)F)ncc2n1C [P6, N-[5-ethylsulfonyl-6-[3-methyl-6-(trifluoromethyl)imidazo[4,5-c]pyridin-2-yl]-3-pyridyl]-N-methyl-acetamide]
percent effect (mortality or growth inhibition) at 200 ppm [6]: ≥ 80%
pest or weed control at 200 ppm (Melodoigyne incognita): ≥ 80%
percent effect (mortality or growth inhibition) at 200 ppm [7]: ≥ 80%
percent control (mortality, anti-feedant effect or growth inhibition) at 200 ppm [8]: ≥ 80%
mortality at 3 ppm [1]: 70%
mortality at 0.2 ppm [2]: 92.5%
mortality at 200 ppm [9]: ≥ 80%
mortality at 200 ppm [10]: ≥ 80%
mortality at 3 ppm [3]: 92.5%
mortality at 200 ppm [11]: ≥ 80%
mortality at 200 ppm [12]: ≥ 80%
percent effect (mortality or growth inhibition) at 200 ppm [13]: ≥ 80%
mortality at 50 ppm [4]: 98%
mortality at 24 ppm [14]: ≥ 80%
mortality at 3 ppm [5]: 80%

melting point: 195 to 196 °C
Structure (SMILES): CCSc1cc(NC(=O)C(C)(C)O)cnc1-c1nc2cc(C(F)(F)F)ncc2n1C [P7, N-[5-ethylsulfanyl-6-[3-methyl-6-(trifluoromethyl)imidazo[4,5-c]pyridin-2-yl]-3-pyridyl]-2-hydroxy-2-methyl-propanamide]

Structure (SMILES): CCS(=O)(=O)c1cc(N(C(C)=O)C(C)C)cnc1-c1nc2cc(C(F)(F)F)ncc2n1C [P46, N-[5-ethylsulfonyl-6-[3-methyl-6-(trifluoromethyl)imidazo[4,5-c]pyridin-2-yl]-3-pyridyl]-N-isopropyl-acetamide]
percent effect (mortality or growth inhibition) at 200 ppm [7]: ≥ 80%
mortality at 200 ppm [9]: ≥ 80%
percent effect (mortality or growth inhibition) at 200 ppm [15]: ≥ 80%
mortality at 200 ppm [10]: ≥ 80%
mortality at 200 ppm [11]: ≥ 80%
mortality at 200 ppm [12]: ≥ 80%
percent effect (mortality or growth inhibition) at 200 ppm [13]: ≥ 80%
mortality at 24 ppm [14]: ≥ 80%

Structure (SMILES): CCS(=O)(=O)c1cc(NC(=O)C2CC2)cnc1-c1nc2cc(C(F)(F)F)ncc2n1C [P2, N-[5-ethylsulfonyl-6-[3-methyl-6-(trifluoromethyl)imidazo[4,5-c]pyridin-2-yl]-3-pyridyl]cyclopropanecarboxamide]
percent effect (mortality or growth inhibition) at 200 ppm [6]: ≥ 80%
mortality at 200 ppm [16]: ≥ 80%
percent effect (mortality or growth inhibition) at 200 ppm [7]: ≥ 80%
mortality at 200 ppm [9]: ≥ 80%
mortality at 200 ppm [12]: ≥ 80%
percent effect (mortality or growth inhibition) at 200 ppm [13]: ≥ 80%
mortality at 1.5 ppm ([14]; Concentration 1.5 ppm, Myzus persicae (systemic, Example B6), read-out: Mortality (%)): 80%
mortality at 24 ppm [14]: ≥ 80%

Structure (SMILES): CCSc1cc(NC(=O)C2CC2)cnc1-c1nc2cc(C(F)(F)F)ncc2n1C [P1, N-[5-ethylsulfanyl-6-[3-methyl-6-(trifluoromethyl)imidazo[4,5-c]pyridin-2-yl]-3-pyridyl]cyclopropanecarboxamide]
mortality at 200 ppm [16]: ≥ 80%
mortality at 200 ppm [9]: ≥ 80%
percent effect (mortality or growth inhibition) at 200 ppm [13]: ≥ 80%

melting point: 260 °C
Structure (SMILES): CCS(=O)(=O)c1cc(NC(=O)C(F)(F)F)ccc1-c1nc2cc(C(F)(F)F)ncc2n1C [P3, N-[3-ethylsulfonyl-4-[3-methyl-6-(trifluoromethyl)imidazo[4,5-c]pyridin-2-yl]phenyl]-2,2,2-trifluoro-acetamide]
